From US12448375B2, “Kinase inhibitors for the treatment of neurodegenerative diseases” (Ohio State Innovation Foundation, priority 2019, dated 2025) come the findings set out here.

What all share (assay type): biochemical
Conditions in all cases: HotSpot radiometric assay, 33P-ATP

For one experiment, the target named is T1, JNK3 (Homo sapiens, UniProt P53779).
T1 construct: purchased Reaction Biology Corp
Description: HotSpot Kinase Assay (Reaction Biology Corp.), anti-JNK3 activity. The protocol:
(§1) The anti-JNK3 activity of compounds prepared as in the previous examples was evaluated using a Reaction Biology Corp. HotSpot Kinase Assay. Base reaction buffer was 20 mM HEPES (4-(2-hydroxyethyl)-1-piperazineethanesulfonic acid) at pH 7.5 with 10 mM MgCl2, 1 mM EGTA (ethylene glycol-bis(β-aminoethyl ether)-N,N,N′,N′-tetracetic acid), 0.02% Brij™ 35, 0.02 mg/mL BSA (bovine serum albumin), 0.1 mM Na3VO4, 2 mM DTT (dithiothreitol), and 1% DMSO. Required cofactors were added individually to each kinase reaction.
(§2) Activity against related enzymes JNK1 and P38a was further assessed using the same assay.

A further experiment addresses T2, JNK1 (Homo sapiens, UniProt P45983).
T2 construct: purchased Reaction Biology Corp
Kind of experiment: HotSpot Kinase Assay, JNK1. The protocol:
as §1, §2

In another experiment the target is T3, p38a (Homo sapiens, UniProt Q16539).
T3 construct: purchased Reaction Biology Corp
T3 sequence (Q16539 whole entry): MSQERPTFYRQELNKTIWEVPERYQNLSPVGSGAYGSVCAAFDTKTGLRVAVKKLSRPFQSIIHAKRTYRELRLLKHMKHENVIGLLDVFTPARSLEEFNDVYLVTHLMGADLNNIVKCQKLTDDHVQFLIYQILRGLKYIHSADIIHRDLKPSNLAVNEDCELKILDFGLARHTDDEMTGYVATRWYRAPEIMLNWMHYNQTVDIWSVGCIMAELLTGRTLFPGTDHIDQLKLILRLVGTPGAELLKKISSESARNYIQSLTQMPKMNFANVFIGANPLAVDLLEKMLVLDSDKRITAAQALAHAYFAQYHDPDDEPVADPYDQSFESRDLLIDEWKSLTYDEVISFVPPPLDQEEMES
Description: HotSpot Kinase Assay, P38a. The protocol: as §1, §2

T2 sequence (P45983 whole entry): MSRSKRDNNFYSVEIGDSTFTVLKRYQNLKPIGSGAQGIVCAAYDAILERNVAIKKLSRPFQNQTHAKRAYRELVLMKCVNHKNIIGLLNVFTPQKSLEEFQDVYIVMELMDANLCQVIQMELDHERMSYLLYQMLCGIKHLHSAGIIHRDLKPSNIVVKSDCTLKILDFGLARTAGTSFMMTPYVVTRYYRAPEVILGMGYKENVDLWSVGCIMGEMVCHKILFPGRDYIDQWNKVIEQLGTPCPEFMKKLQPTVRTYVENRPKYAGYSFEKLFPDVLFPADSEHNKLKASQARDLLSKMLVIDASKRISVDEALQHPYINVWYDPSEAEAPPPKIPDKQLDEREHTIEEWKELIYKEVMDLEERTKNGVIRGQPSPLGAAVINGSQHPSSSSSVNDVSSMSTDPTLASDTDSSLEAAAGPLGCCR
T1 sequence (P53779 whole entry): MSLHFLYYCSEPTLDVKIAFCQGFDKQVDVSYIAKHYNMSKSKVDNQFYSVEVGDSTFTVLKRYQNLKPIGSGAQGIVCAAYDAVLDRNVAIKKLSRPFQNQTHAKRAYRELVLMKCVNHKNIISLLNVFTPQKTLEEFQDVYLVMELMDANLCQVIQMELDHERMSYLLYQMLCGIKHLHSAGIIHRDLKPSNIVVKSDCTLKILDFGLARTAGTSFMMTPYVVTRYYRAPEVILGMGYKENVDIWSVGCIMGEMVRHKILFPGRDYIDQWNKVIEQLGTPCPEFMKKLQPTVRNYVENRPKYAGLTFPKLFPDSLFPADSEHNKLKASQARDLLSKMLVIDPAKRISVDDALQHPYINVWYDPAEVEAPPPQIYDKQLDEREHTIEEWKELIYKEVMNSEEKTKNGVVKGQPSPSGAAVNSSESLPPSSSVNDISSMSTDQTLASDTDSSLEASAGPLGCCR

Broadly, the IC50 is the concentration at which inhibition is half-maximal. A high value points to lower potency. In the case of `CNC(=O)c1cc(-n2ncc3cc(Oc4ccccc4Cl)ncc32)cs1` [Compound 15, 4-(5-(2-chlorophenoxy)-1H-pyrazolo[3,4-c]pyridin-1-yl)-N-methylthiophene-2-carboxamide], the IC50 against JNK3 is below 200 nM.

Consider `CNC(=O)c1cc(-n2ncc3cc(Nc4ccccc4Cl)cnc32)c(C)s1` [Compound 65, 4-(5-((2-chlorophenyl)amino)-1H-pyrazolo[3,4-b]pyridin-1-yl)-N,5-dimethylthiophene-2-carboxamide], for which the IC50 is below 200 nM at JNK3, 200 to 1000 nM against JNK1 and below 200 nM on p38a. Turning to `O=C(NC1COC1)c1cc(-n2ncc3cc(Oc4ccccc4Cl)ncc32)cs1` [Compound 23, 4-(5-(2-chlorophenoxy)-1H-pyrazolo[3,4-c]pyridin-1-yl)-N-(oxetan-3-yl)thiophene-2-carboxamide], the IC50 against JNK3 lay in the range of 200 to 1000 nM. As to `O=C(NC1CNC1)c1cc(-n2ncc3nc(Nc4ccccc4Cl)ncc32)cs1` [Compound 27, N-(azetidin-3-yl)-4-(5-((2-chlorophenyl)amino)-1H-pyrazolo[4,3-d]pyrimidin-1-yl)thiophene-2-carboxamide], the IC50 against JNK3, at JNK1 and against p38a was above 1000 nM in each case. For the molecule `Cn1ccnc1NC(=O)c1cc(-n2ncc3nc(Nc4ccccc4Cl)ccc32)cs1` [Compound 59, 4-(5-((2-chlorophenyl)amino)-1H-pyrazolo[4,3-b]pyridin-1-yl)-N-(1-methyl-1H-imidazol-2-yl)thiophene-2-carboxamide], the IC50 on JNK3 was in the range of 200 to 1000 nM. `CC(C)NC(=O)c1cc(-n2ncc3nc(Nc4ccccc4Cl)ccc32)cs1` [Compound 54, 4-(5-((2-chlorophenyl)amino)-1H-pyrazolo[4,3-b]pyridin-1-yl)-N-isopropylthiophene-2-carboxamide]: the IC50 at JNK3 is below 200 nM; against JNK1, 200 to 1000 nM; against p38a, 200 to 1000 nM. For the molecule `CNC(=O)c1cc(-n2ncc3nc(Oc4ccccc4Cl)ccc32)cs1` [Compound 49, 4-(5-(2-chlorophenoxy)-1H-pyrazolo[4,3-b]pyridin-1-yl)-N-methylthiophene-2-carboxamide], the IC50 is 200 to 1000 nM against JNK3, above 1000 nM against JNK1 and 200 to 1000 nM at p38a. Turning to `O=C(NC(CO)CO)c1cc(-n2ncc3nc(Nc4ccccc4Cl)ccc32)cs1` [Compound 53, 4-(5-((2-chlorophenyl)amino)-1H-pyrazolo[4,3-b]pyridin-1-yl)-N-(1,3-dihydroxypropan-2-yl)thiophene-2-carboxamide], the IC50 was below 200 nM on JNK3, above 1000 nM at JNK1 and above 1000 nM against p38a.

`CN1CCN=C1NC(=O)c1cc(-n2ncc3cc(Nc4ccccc4Cl)ncc32)cs1` [Compound 21, 4-(5-((2-chlorophenyl)amino)-1H-pyrazolo[3,4-c]pyridin-1-yl)-N-(1-methyl-4,5-dihydro-1H-imidazol-2-yl)thiophene-2-carboxamide] showed an IC50 against JNK3 below 200 nM. As for `O=C(NCC(F)F)c1cc(-n2ncc3cc(Nc4ccccc4Cl)c(F)cc32)cs1` [Compound 39, 4-(5-((2-chlorophenyl)amino)-6-fluoro-1H-indazol-1-yl)-N-(2,2-difluoroethyl)thiophene-2-carboxamide], the IC50 against JNK3, at JNK1 and at p38a was below 200 nM throughout. The molecule `CC(=O)N1CC(NC(=O)c2cc(-n3ncc4cc(Nc5ccccc5Cl)ccc43)cs2)C1` [Compound 29, N-(1-acetylazetidin-3-yl)-4-(5-((2-chlorophenyl)amino)-1H-indazol-1-yl)thiophene-2-carboxamide] gave an IC50 against JNK3 below 200 nM. The same measure, in the same setting: next, `CNC(=O)c1cc(-n2ncc3cc(Nc4cccc(F)c4Cl)ncc32)cs1` [Compound 24, 4-(5-((2-chloro-3-fluorophenyl)amino)-1H-pyrazolo[3,4-c]pyridin-1-yl)-N-methylthiophene-2-carboxamide]: below 200 nM. With `CC(C)NC(=O)c1cc(-n2ncc3cc(Nc4ccccc4Cl)c(F)cc32)cs1` [Compound 44, 4-(5-((2-chlorophenyl)amino)-6-fluoro-1H-indazol-1-yl)-N-isopropylthiophene-2-carboxamide], the IC50 on JNK3, at JNK1 and at p38a was below 200 nM each time. As to `Cn1cnc(NC(=O)c2cc(-n3ncc4nc(Nc5ccccc5Cl)ccc43)cs2)c1` [Compound 57, 4-(5-((2-chlorophenyl)amino)-1H-pyrazolo[4,3-b]pyridin-1-yl)-N-(1-methyl-1H-imidazol-4-yl)thiophene-2-carboxamide], on JNK3, the IC50 was below 200 nM. As to `CNC(=O)c1cc(-n2ncc3cc(N(C)c4ccccc4OC)c(F)cc32)cs1` [Compound 75, 4-(6-fluoro-5-((2-methoxyphenyl)(methyl)amino)-1H-indazol-1-yl)-N-methylthiophene-2-carboxamide], the IC50 is below 200 nM against JNK3, 200 to 1000 nM against JNK1 and 200 to 1000 nM on p38a. For the molecule `CCNC(=O)c1cc(-n2ncc3cc(Oc4ccccc4Cl)ncc32)cs1` [Compound 18, 4-(5-(2-chlorophenoxy)-1H-pyrazolo[3,4-c]pyridin-1-yl)-N-ethylthiophene-2-carboxamide], at JNK3, the IC50 is below 200 nM. At JNK3, `CC(=O)N1CC(NC(=O)c2cc(-n3ncc4cc(Nc5ccccc5Cl)ncc43)cs2)C1` [Compound 22, N-(1-acetylazetidin-3-yl)-4-(5-((2-chlorophenyl)amino)-1H-pyrazolo[3,4-c]pyridin-1-yl)thiophene-2-carboxamide] yielded an IC50 below 200 nM. Take `CN1CCN=C1NC(=O)c1cc(-n2ncc3cc(Nc4ccccc4Cl)ccc32)cs1` [Compound 45, 4-(5-((2-chlorophenyl)amino)-1H-indazol-1-yl)-N-(1-methyl-4,5-dihydro-1H-imidazol-2-yl)thiophene-2-carboxamide]: the IC50 against JNK3 is below 200 nM.

Molecule `O=C(NC1=NCCO1)c1cc(-n2ncc3cc(Nc4ccccc4Cl)c(F)cc32)cs1` [Compound 43, 4-(5-((2-chlorophenyl)amino)-6-fluoro-1H-indazol-1-yl)-N-(4,5-dihydrooxazol-2-yl)thiophene-2-carboxamide] gave an IC50 at JNK3 below 200 nM.

`CNC(=O)c1cc(-n2ncc3nc(Nc4ccccc4Cl)ncc32)cs1` [Compound 41, 4-(5-((2-chlorophenyl)amino)-1H-pyrazolo[4,3-d]pyrimidin-1-yl)-N-methylthiophene-2-carboxamide] gave an IC50 at JNK3 of 200 to 1000 nM. `Cn1cnc(NC(=O)c2cc(-n3ncc4cc(Nc5ccccc5Cl)cnc43)cs2)c1` [Compound 66, 4-(5-((2-chlorophenyl)amino)-1H-pyrazolo[3,4-b]pyridin-1-yl)-N-(1-methyl-1H-imidazol-4-yl)thiophene-2-carboxamide] yielded an IC50 at JNK3 below 200 nM.

Consider `Cn1cnc(NC(=O)c2cc(-n3ncc4cc(Nc5ccccc5Cl)ncc43)cs2)c1` [Compound 19, 4-(5-((2-chlorophenyl)amino)-1H-pyrazolo[3,4-c]pyridin-1-yl)-N-(1-methyl-1H-imidazol-4-yl)thiophene-2-carboxamide], for which the IC50 on JNK3 was below 200 nM. In turn, `CCNC(=O)c1cc(-n2ncc3cc(Nc4ccccc4Cl)ncc32)cs1` [Compound 26, 4-(5-((2-chlorophenyl)amino)-1H-pyrazolo[3,4-c]pyridin-1-yl)-N-ethylthiophene-2-carboxamide] displayed an IC50 against JNK3 below 200 nM. `O=C(NC1COC1)c1cc(-n2ncc3cc(Nc4ccccc4Cl)ncc32)cs1` [Compound 20, 4-(5-((2-chlorophenyl)amino)-1H-pyrazolo[3,4-c]pyridin-1-yl)-N-(oxetan-3-yl)thiophene-2-carboxamide]: the IC50 against JNK3 was below 200 nM.

At JNK3, `CCNC(=O)c1cc(-n2ncc3cc(Oc4ccccc4Cl)cnc32)cs1` [Compound 73, 4-(5-(2-chlorophenoxy)-1H-pyrazolo[3,4-b]pyridin-1-yl)-N-ethylthiophene-2-carboxamide] gave an IC50 below 200 nM. On JNK3, `Cn1ccnc1NC(=O)c1cc(-n2ncc3cc(Nc4ccccc4Cl)cnc32)cs1` [Compound 67, 4-(5-((2-chlorophenyl)amino)-1H-pyrazolo[3,4-b]pyridin-1-yl)-N-(1-methyl-1H-imidazol-2-yl)thiophene-2-carboxamide] yielded an IC50 below 200 nM. `CN1C[C@@H](NC(=O)c2cc(-n3ncc4nc(Nc5ccccc5Cl)ccc43)cs2)CC1=O` [Compound 60, (S)-4-(5-((2-chlorophenyl)amino)-1H-pyrazolo[4,3-b]pyridin-1-yl)-N-(1-methyl-5-oxopyrrolidin-3-yl)thiophene-2-carboxamide]: on JNK3, the IC50 is below 200 nM. At JNK3, `N#CCNC(=O)c1cc(-n2ncc3cc(Nc4ccccc4Cl)ccc32)cs1` [Compound 46, 4-(5-((2-chlorophenyl)amino)-1H-indazol-1-yl)-N-(cyanomethyl)thiophene-2-carboxamide] gave an IC50 below 200 nM. Consider `COC(=O)N1CC(NC(=O)c2cc(-n3ncc4cc(Nc5ccccc5Cl)ccc43)cs2)C1` [Compound 33, Methyl 3-(4-(5-((2-chlorophenyl)amino)-1H-indazol-1-yl)thiophene-2-carboxamido)azetidine-1-carboxylate], for which the IC50 against JNK3 is below 200 nM. At JNK3, `O=C(NCCCF)c1cc(-n2ncc3nc(Nc4ccccc4Cl)ncc32)cs1` [Compound 42, 4-(5-((2-chlorophenyl)amino)-1H-pyrazolo[4,3-d]pyrimidin-1-yl)-N-(3-fluoropropyl)thiophene-2-carboxamide] gave an IC50 below 200 nM.

For `O=C(N[C@H]1CCOC1)c1cc(-n2ncc3nc(Nc4ccccc4Cl)ccc32)cs1` [Compound 51, (S)-4-(5-((2-chlorophenyl)amino)-1H-pyrazolo[4,3-b]pyridin-1-yl)-N-(tetrahydrofuran-3-yl)thiophene-2-carboxamide], the IC50 on JNK3 was below 200 nM.
